Counter-ions that a name gives are not always drawn.

Results on 35 molecules are retold here after the supplement of paper PMC12137928.

The experiment has as its system HCT116. Particulars: 72 h. The essentials: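 Luminescence was read with CellTiter-Glo in HCT116 cells seeded at 250 per well in 1536-well plates. Signals were scaled between vehicle at 0% and positive control at -100%, then pattern-corrected. IC50 and maximal efficacy were obtained by fitting a four-parameter Hill equation.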

Turning to `C[C@@H]1C[C@H]2[C@@H]3C[C@H](F)C4=CC(=O)C=C[C@]4(C)[C@@]3(F)[C@@H](O)C[C@]2(C)[C@@]1(O)C(=O)CO` [Flumethasone], the IC50 cell viability is above 45.8 µM (ICRF193 0 nM) and above 45.8 µM (ICRF193 200 nM).

For `CC1(C)O[C@@H]2C[C@H]3[C@@H]4C[C@H](F)C5=CC(=O)C=C[C@]5(C)[C@H]4[C@@H](O)C[C@]3(C)[C@]2(C(=O)CO)O1` [Flunisolide], the IC50 cell viability by setting is: (ICRF193 0 nM) above 45.8 µM; (ICRF193 200 nM) above 45.8 µM.

Consider `Cc1c(Nc2ncccc2C(=O)O)cccc1C(F)(F)F` [Flunixin meglumine], for which the IC50 cell viability runs as follows: (ICRF193 0 nM) above 45.8 µM; (ICRF193 200 nM) above 45.8 µM.

Turning to `CC1(C)O[C@@H]2C[C@H]3[C@@H]4C[C@H](F)C5=CC(=O)C=C[C@]5(C)[C@@]4(F)[C@@H](O)C[C@]3(C)[C@]2(C(=O)CO)O1` [Fluocinolone acetonide], the IC50 cell viability is, setting by setting: (ICRF193 0 nM) above 45.8 µM; (ICRF193 200 nM) above 45.8 µM.

Turning to `CC(=O)OCC(=O)[C@@]12OC(C)(C)O[C@@H]1C[C@H]1[C@@H]3C[C@H](F)C4=CC(=O)C=C[C@]4(C)[C@@]3(F)[C@@H](O)C[C@@]12C` [Fluocinonide], the IC50 cell viability runs as follows: (ICRF193 0 nM) above 45.8 µM; (ICRF193 200 nM) above 45.8 µM.

Consider `O=C(O)c1ccccc1-c1c2ccc(=O)cc-2oc2cc(O)ccc12` [Fluorescein sodium], for which the IC50 cell viability was above 45.8 µM (ICRF193 0 nM) and above 45.8 µM (ICRF193 200 nM).

For `CC(=O)O[C@]1(C(C)=O)CC[C@H]2[C@@H]3C[C@H](C)C4=CC(=O)C=C[C@]4(C)[C@@]3(F)[C@@H](O)C[C@@]21C` [Fluorometholone Acetate], the IC50 cell viability (ICRF193 0 nM) was above 45.8 µM and the IC50 cell viability (ICRF193 200 nM) was above 45.8 µM.

`CC(=O)[C@@]1(O)CC[C@H]2[C@@H]3C[C@H](C)C4=CC(=O)C=C[C@]4(C)[C@@]3(F)[C@@H](O)C[C@@]21C` [Fluorometholone] registered an IC50 cell viability (ICRF193 0 nM) above 45.8 µM and an IC50 cell viability (ICRF193 200 nM) above 45.8 µM.

`C=C1C[C@H]2[C@@H]3CCC4=CC(=O)C=C[C@]4(C)[C@@]3(F)[C@@H](O)C[C@]2(C)[C@@]1(O)C(=O)COC(C)=O` [Fluprednidene acetate]: the IC50 cell viability by setting is: (ICRF193 0 nM) above 45.8 µM; (ICRF193 200 nM) above 45.8 µM.

Consider `C[C@]12C=CC(=O)C=C1[C@@H](F)C[C@@H]1[C@@H]2[C@@H](O)C[C@@]2(C)[C@H]1CC[C@]2(O)C(=O)CO` [Fluprednisolone], for which the IC50 cell viability is above 45.8 µM (ICRF193 0 nM) and above 45.8 µM (ICRF193 200 nM).

With `CC1(C)O[C@@H]2C[C@H]3[C@@H]4C[C@H](F)C5=CC(=O)CC[C@]5(C)[C@H]4[C@@H](O)C[C@]3(C)[C@]2(C(=O)CO)O1` [Flurandrenolide], the IC50 cell viability reads like this: (ICRF193 0 nM) above 45.8 µM; (ICRF193 200 nM) above 45.8 µM.

Consider `CC(=O)OC(C)OC(=O)C(C)c1ccc(-c2ccccc2)c(F)c1` (stereo not given) [Flurbiprofen axetil], for which the IC50 cell viability reads like this: (ICRF193 0 nM) above 45.8 µM; (ICRF193 200 nM) above 45.8 µM.

Consider `CC(C(=O)O)c1ccc(-c2ccccc2)c(F)c1` (stereo not given) [Flurbiprofen], for which the IC50 cell viability was above 45.8 µM (ICRF193 0 nM) and above 45.8 µM (ICRF193 200 nM).

`CC(C)C(=O)Nc1ccc([N+](=O)[O-])c(C(F)(F)F)c1` [Flutamide] registered an IC50 cell viability (ICRF193 0 nM) above 45.8 µM and an IC50 cell viability (ICRF193 200 nM) above 45.8 µM.

For `CCC(=O)O[C@]1(C(=O)SCF)[C@H](C)C[C@H]2[C@@H]3C[C@H](F)C4=CC(=O)C=C[C@]4(C)[C@@]3(F)[C@@H](O)C[C@@]21C` [Fluticasone propionate], the IC50 cell viability is, setting by setting: (ICRF193 0 nM) above 45.8 µM; (ICRF193 200 nM) above 45.8 µM.

With `C[N+]1(CCF)[C@@H]2CC[C@H]1C[C@@H](OC(=O)C(O)(c1ccccc1)c1ccccc1)C2` (stereo not given in full) [Flutropium bromide], the IC50 cell viability is, setting by setting: (ICRF193 0 nM) above 45.8 µM; (ICRF193 200 nM) above 45.8 µM.

Turning to `COCCCC/C(=N\OCCN)c1ccc(C(F)(F)F)cc1` [Fluvoxamine], the IC50 cell viability was above 45.8 µM (ICRF193 0 nM) and above 45.8 µM (ICRF193 200 nM).

In the case of `Nc1nc(=O)c2nc(CNc3ccc(C(=O)N[C@@H](CCC(=O)O)C(=O)O)cc3)cnc2[nH]1` [Folic acid], the IC50 cell viability is, setting by setting: (ICRF193 0 nM) above 45.8 µM; (ICRF193 200 nM) above 45.8 µM.

Regarding `Cc1cn[nH]c1` [Fomepizole], the IC50 cell viability is, setting by setting: (ICRF193 0 nM) above 45.8 µM; (ICRF193 200 nM) above 45.8 µM.

In the case of `CN(CC(=O)N1CCOCC1)Cc1c(Cl)cccc1NC(=O)c1ccccc1` [Fominoben hydrochloride], the IC50 cell viability is above 45.8 µM (ICRF193 0 nM) and above 45.8 µM (ICRF193 200 nM).

As to `COc1ccc(CC(C)NCC(O)c2ccc(O)c(NC=O)c2)cc1` (stereo not given) [Formoterol hemifumarate], the IC50 cell viability reads like this: (ICRF193 0 nM) above 45.8 µM; (ICRF193 200 nM) above 45.8 µM.

Take `O=c1[nH]cnc2c([C@@H]3N[C@H](CO)[C@@H](O)[C@H]3O)c[nH]c12` [Forodesine (hydrochloride)]: the IC50 cell viability reads like this: (ICRF193 0 nM) above 45.8 µM; (ICRF193 200 nM) above 45.8 µM.

For the molecule `CC(C)CN(C[C@@H](OP(=O)(O)O)[C@H](Cc1ccccc1)NC(=O)O[C@H]1CCOC1)S(=O)(=O)c1ccc(N)cc1` [Fosamprenavir (Calcium Salt)], the IC50 cell viability runs as follows: (ICRF193 0 nM) above 45.8 µM; (ICRF193 200 nM) above 45.8 µM.

Consider `O=C(O)P(=O)(O)O` [Foscarnet trisodium], for which the IC50 cell viability reads like this: (ICRF193 0 nM) above 45.8 µM; (ICRF193 200 nM) above 45.8 µM.

Turning to `CC/C(=C(/CC)c1ccc(OP(=O)(O)O)cc1)c1ccc(OP(=O)(O)O)cc1` [Fosfestrol tetrasodium], the IC50 cell viability is above 45.8 µM (ICRF193 0 nM) and above 45.8 µM (ICRF193 200 nM).

As for `O=P(O)(O)OC(Cn1cncn1)(Cn1cncn1)c1ccc(F)cc1F` [Fosfluconazole], the IC50 cell viability is above 45.8 µM (ICRF193 0 nM) and above 45.8 µM (ICRF193 200 nM).

Take `O=C1NC(c2ccccc2)(c2ccccc2)C(=O)N1COP(=O)(O)O` [Fosphenytoin]: the IC50 cell viability by setting is: (ICRF193 0 nM) above 45.8 µM; (ICRF193 200 nM) above 45.8 µM.

In the case of `CCOP(=O)(OCC)C(C)NC(=O)N(CCCl)N=O` (stereo not given) [Fotemustine], the IC50 cell viability by setting is: (ICRF193 0 nM) above 45.8 µM; (ICRF193 200 nM) above 45.8 µM.

Turning to `CN[C@@H]1CCc2[nH]c3ccc(C(N)=O)cc3c2C1` [Frovatriptan succinate], the IC50 cell viability runs as follows: (ICRF193 0 nM) above 45.8 µM; (ICRF193 200 nM) above 45.8 µM.

As for `N[C@@H](CSCCCO)C(=O)O` [Fudosteine], the IC50 cell viability runs as follows: (ICRF193 0 nM) above 45.8 µM; (ICRF193 200 nM) above 45.8 µM.

`C[C@]12CC[C@@H]3c4ccc(O)cc4C[C@@H](CCCCCCCCC[S+]([O-])CCCC(F)(F)C(F)(F)F)[C@H]3[C@@H]1CC[C@@H]2O` (stereo not given in full) [Fulvestrant] gave an IC50 cell viability (ICRF193 0 nM) above 45.8 µM and an IC50 cell viability (ICRF193 200 nM) above 45.8 µM.

With `CO[C@@H]1[C@H](OC(=O)/C=C/C=C/C=C/C=C/C(=O)O)CC[C@]2(CO2)[C@H]1[C@@]1(C)O[C@@H]1CC=C(C)C` [Fumagillin], the IC50 cell viability is above 45.8 µM (ICRF193 0 nM) and above 45.8 µM (ICRF193 200 nM).

With `O=C1OCCN1/N=C/c1ccc([N+](=O)[O-])o1` [Furazolidone], the IC50 cell viability reads like this: (ICRF193 0 nM) above 45.8 µM; (ICRF193 200 nM) above 45.8 µM.

As for `NS(=O)(=O)c1cc(C(=O)O)c(NCc2ccco2)cc1Cl` [Furosemide], the IC50 cell viability reads like this: (ICRF193 0 nM) above 45.8 µM; (ICRF193 200 nM) above 45.8 µM.

Take `CC(=O)O[C@H]1C[C@@]2(C)[C@@H](C[C@@H](O)[C@H]3[C@@]4(C)CC[C@@H](O)[C@@H](C)[C@@H]4CC[C@@]32C)/C1=C(\CCC=C(C)C)C(=O)O` [Fusidic Acid (sodium salt)]: the IC50 cell viability is, setting by setting: (ICRF193 0 nM) above 45.8 µM; (ICRF193 200 nM) above 45.8 µM.
